Measurements: the NIST ThermoML archive (doi:10.1021/je060271a)
Numbers after ± are expanded uncertainties.

Details: 323.15 K, Liquid, Vibrating tube method

CCCCC(=O)OCC(COC(=O)CCCC)(COC(=O)CCCC)COC(=O)CCCC [pentaerythritol tetrapentanoate]
Details	mass density [kg/m3]
10795 kPa	1002.1 ± 1.2
10820 kPa	1002.2 ± 1.2
10840 kPa	1002.2 ± 1.2
10860 kPa	1002.2 ± 1.2
10885 kPa	1002.2 ± 1.2
10905 kPa	1002.2 ± 1.2
10926 kPa	1002.2 ± 1.2
10951 kPa	1002.2 ± 1.2
10971 kPa	1002.3 ± 1.2
10992 kPa	1002.2 ± 1.2
11018 kPa	1002.3 ± 1.2
11039 kPa	1002.2 ± 1.2
11060 kPa	1002.4 ± 1.2
11085 kPa	1002.4 ± 1.2
11106 kPa	1002.3 ± 1.2
11128 kPa	1002.4 ± 1.2
11153 kPa	1002.4 ± 1.2
11175 kPa	1002.3 ± 1.2
11197 kPa	1002.4 ± 1.2
11223 kPa	1002.5 ± 1.2
11245 kPa	1002.5 ± 1.2
11267 kPa	1002.4 ± 1.2
11289 kPa	1002.5 ± 1.2
11316 kPa	1002.5 ± 1.2
11339 kPa	1002.5 ± 1.2
11366 kPa	1002.7 ± 1.2
11388 kPa	1002.6 ± 1.2
11411 kPa	1002.6 ± 1.2
11434 kPa	1002.6 ± 1.2
11461 kPa	1002.6 ± 1.2
11484 kPa	1002.6 ± 1.2
11534 kPa	1002.6 ± 1.2
11558 kPa	1002.6 ± 1.2
11581 kPa	1002.6 ± 1.2
11610 kPa	1002.5 ± 1.2
11633 kPa	1002.7 ± 1.2
11657 kPa	1002.6 ± 1.2
11681 kPa	1002.7 ± 1.2
11710 kPa	1002.7 ± 1.2
11735 kPa	1002.8 ± 1.2
11759 kPa	1002.7 ± 1.2
11784 kPa	1002.8 ± 1.2
11813 kPa	1002.8 ± 1.2
11838 kPa	1002.8 ± 1.2
11862 kPa	1002.9 ± 1.2
11892 kPa	1002.9 ± 1.2
11917 kPa	1003 ± 1.2
11942 kPa	1002.8 ± 1.2
11971 kPa	1003 ± 1.2
11996 kPa	1003 ± 1.2
12022 kPa	1002.9 ± 1.2
12053 kPa	1003 ± 1.2
12074 kPa	1003.1 ± 1.2
12105 kPa	1003 ± 1.2
12130 kPa	1003 ± 1.2
12156 kPa	1003 ± 1.2
12187 kPa	1003 ± 1.2
12213 kPa	1003.1 ± 1.2
12244 kPa	1003.1 ± 1.2
12271 kPa	1003.1 ± 1.2
12297 kPa	1003.2 ± 1.2
12324 kPa	1003.2 ± 1.2
12355 kPa	1003.2 ± 1.2
12382 kPa	1003.4 ± 1.2
12415 kPa	1003.3 ± 1.2
12442 kPa	1003.1 ± 1.2
12469 kPa	1003.2 ± 1.2
12502 kPa	1003.3 ± 1.2
12529 kPa	1003.4 ± 1.2
12557 kPa	1003.4 ± 1.2
12585 kPa	1003.4 ± 1.2
12618 kPa	1003.2 ± 1.2
12646 kPa	1003.4 ± 1.2
12674 kPa	1003.4 ± 1.2
12736 kPa	1003.4 ± 1.2
12770 kPa	1003.5 ± 1.2
12800 kPa	1003.3 ± 1.2
12828 kPa	1003.6 ± 1.2
12858 kPa	1003.5 ± 1.2
12892 kPa	1003.5 ± 1.2
12922 kPa	1003.7 ± 1.2
12957 kPa	1003.7 ± 1.2
12986 kPa	1003.6 ± 1.2
13016 kPa	1003.7 ± 1.2
13052 kPa	1003.6 ± 1.2
13082 kPa	1003.6 ± 1.2
13112 kPa	1003.7 ± 1.2
13149 kPa	1003.7 ± 1.2
13179 kPa	1003.7 ± 1.2
13210 kPa	1003.7 ± 1.2
13242 kPa	1003.9 ± 1.2
13279 kPa	1003.8 ± 1.2
13310 kPa	1003.9 ± 1.2
13347 kPa	1003.9 ± 1.2
13378 kPa	1003.7 ± 1.2
13410 kPa	1003.9 ± 1.2
13443 kPa	1004 ± 1.2
13482 kPa	1003.9 ± 1.2
13514 kPa	1004 ± 1.2
13548 kPa	1004 ± 1.2
13581 kPa	1004 ± 1.2
13620 kPa	1004 ± 1.2
13654 kPa	1004 ± 1.2
13687 kPa	1004.2 ± 1.2
13727 kPa	1004 ± 1.2
13760 kPa	1004.1 ± 1.2
13794 kPa	1004.2 ± 1.2
13829 kPa	1004.2 ± 1.2
13870 kPa	1004.3 ± 1.2
13945 kPa	1004.2 ± 1.2
13980 kPa	1004.2 ± 1.2
14049 kPa	1004.4 ± 1.2
14091 kPa	1004.3 ± 1.2
14126 kPa	1004.4 ± 1.2
14162 kPa	1004.3 ± 1.2
14284 kPa	1004.4 ± 1.2
14320 kPa	1004.4 ± 1.2
14358 kPa	1004.5 ± 1.2
14402 kPa	1004.5 ± 1.2
14440 kPa	1004.6 ± 1.2
14477 kPa	1004.6 ± 1.2
14515 kPa	1004.6 ± 1.2
14560 kPa	1004.7 ± 1.2
14600 kPa	1004.6 ± 1.2
14639 kPa	1004.7 ± 1.2
14678 kPa	1004.6 ± 1.2
14717 kPa	1004.7 ± 1.2
14764 kPa	1004.7 ± 1.2
14803 kPa	1004.7 ± 1.2
14843 kPa	1004.8 ± 1.2
14891 kPa	1004.9 ± 1.2
14931 kPa	1004.9 ± 1.2
14972 kPa	1005 ± 1.2
15020 kPa	1004.9 ± 1.2
15062 kPa	1004.9 ± 1.2
15103 kPa	1005 ± 1.2
15147 kPa	1005 ± 1.2
15192 kPa	1005.1 ± 1.2
15243 kPa	1005.1 ± 1.2
15287 kPa	1005.1 ± 1.2
15332 kPa	1005.1 ± 1.2
15386 kPa	1005.2 ± 1.2
15429 kPa	1005.1 ± 1.2
15462 kPa	1005.2 ± 1.2
15497 kPa	1005.2 ± 1.2
15526 kPa	1005.2 ± 1.2
15556 kPa	1005.3 ± 1.2
15585 kPa	1005.3 ± 1.2
15621 kPa	1005.2 ± 1.2
15652 kPa	1005.4 ± 1.2
15685 kPa	1005.4 ± 1.2
15723 kPa	1005.4 ± 1.2
15754 kPa	1005.5 ± 1.2
15779 kPa	1005.4 ± 1.2
15803 kPa	1005.4 ± 1.2
15822 kPa	1005.5 ± 1.2
15842 kPa	1005.5 ± 1.2
15865 kPa	1005.6 ± 1.2
15885 kPa	1005.5 ± 1.2
15904 kPa	1005.6 ± 1.2
